{"source": "patent EP0326526A1", "about": "“Aminoketones of substituted dibenzo- and pyridobenzo-azepinones and pharmaceutical compositions” (ISTITUTO DE ANGELI S.p.A., priority 1988, dated 1989)", "key": {"[1]": {"target": "T1, M₁ muscarinic receptors (cerebral cortex) (Rattus norvegicus, UniProt P08482)", "T1 construct": "displacement of ³H-pirenzepine from cerebral cortex homogenate; from tissue; host or cells: rat cerebral cortex homogenate", "T1 sequence (P08482 1-460)": "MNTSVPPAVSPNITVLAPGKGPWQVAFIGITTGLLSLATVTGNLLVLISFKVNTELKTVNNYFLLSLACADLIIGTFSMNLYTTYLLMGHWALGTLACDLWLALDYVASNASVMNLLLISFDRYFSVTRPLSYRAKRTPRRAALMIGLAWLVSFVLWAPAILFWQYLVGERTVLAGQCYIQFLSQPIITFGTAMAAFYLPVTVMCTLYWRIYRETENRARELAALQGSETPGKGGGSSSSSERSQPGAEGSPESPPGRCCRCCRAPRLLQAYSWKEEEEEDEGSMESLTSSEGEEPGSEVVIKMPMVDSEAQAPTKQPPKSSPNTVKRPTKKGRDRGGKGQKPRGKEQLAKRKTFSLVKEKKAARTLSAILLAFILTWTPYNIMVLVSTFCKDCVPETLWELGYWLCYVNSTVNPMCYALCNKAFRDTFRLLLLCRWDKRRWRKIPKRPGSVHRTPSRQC", "assay": "Muscarinic M₁ receptor binding: displacement of ³H-pirenzepine from cerebral cortex homogenate", "design": "species or system male CD-COOBBS rats", "conditions": "competition against 0.5 nM ³H-pirenzepine, 45 min at 30°C, read-out: IN VITRO RECEPTOR BINDING TEST KD M₁ (cortex)", "protocol": "(§1) Antimuscarinic activity and selectivity were examined in vitro by receptor binding studies in two tissues endowed with M₁ and M₂ muscarinic receptors (cerebral cortex, heart) and in vivo by studying the acid secretion and pepsin inhibition (M₁ response) in comparison with the cardiac and mydriatic effects (M₂ response) in conscious dogs equipped with cronic gastric fistula.\nMuscarinic M₁ activity was determined by studying the displacement of ³H-pirenzepine from cerebral cortex homogenate according to the procedure reported below: The cerebral cortex donors were male CD-COOBBS rats, 220-250 g body weight. The homogenization process was carried out in a Potter-Evelhjem apparatus in the presence of Na⁺/Mg⁺⁺ HEPES buffer; pH 7.4 (100 mM NaCl, 10 mM MgCl₂, 20 mM HEPES); by filtering the suspension through two layers of cheesecloth. Binding curves for the under study compounds were derived indirectly from competition experiments against 0.5 nM ³H-pirenzepine labelling the muscarinic receptors of the cerebral cortex. 1 ml of the homogenate was incubated for 45 min at 30°C in the presence of a marker ligand and dif ferent concentrations of the cold ligand, conditions under which equilibrium was reached as determined by appropriate association experiments. The incubation was termination by centrifugation (12,000 rpm for 3 min) at room temperature using an Eppendorf microcentrifuge. The resultant pellet was washed twice with 1.5 ml saline to remove the free radioactivity and the final pellet was allowed to drain. The tips of the tubes containing the pellet were cut off and 200µl of tissue subilizer (Lumasolve, Lumac) were added and left to stand overnight. Radioactivity was then counted after addition of 4 ml of liquid scintillation mixture (Dimilume/Toluene 1:10 v:v, Packard).\nAssays were carried out in triplicate or quadruplicate and the non-specific binding was defined as the radioactivity bound or entrapped in the pellet when the incubation medium contained 1 µM atropine sulphate. Non-specific binding avaraged less then 30%. […]"}, "[2]": {"target": "T2, M₂ muscarinic receptors (heart) (Rattus norvegicus, UniProt P10980)", "T2 construct": "displacement of ³H-NMS from total heart homogenate; from tissue; rat inferred", "T2 sequence (P10980 1-466)": "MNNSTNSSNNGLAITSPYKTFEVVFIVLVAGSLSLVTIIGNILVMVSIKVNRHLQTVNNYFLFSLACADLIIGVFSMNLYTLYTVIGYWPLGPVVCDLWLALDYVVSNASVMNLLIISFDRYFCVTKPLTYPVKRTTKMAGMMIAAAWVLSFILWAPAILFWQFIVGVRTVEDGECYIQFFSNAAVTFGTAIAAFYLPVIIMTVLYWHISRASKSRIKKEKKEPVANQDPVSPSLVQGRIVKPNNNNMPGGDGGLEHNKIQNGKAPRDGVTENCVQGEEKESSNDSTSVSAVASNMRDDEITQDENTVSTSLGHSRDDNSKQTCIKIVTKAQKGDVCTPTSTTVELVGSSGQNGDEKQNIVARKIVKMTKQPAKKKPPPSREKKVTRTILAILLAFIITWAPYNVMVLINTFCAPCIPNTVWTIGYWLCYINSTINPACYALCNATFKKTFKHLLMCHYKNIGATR", "assay": "Muscarinic M₂ receptor binding: displacement of ³H-NMS from total heart homogenate", "conditions": "read-out: IN VITRO RECEPTOR BINDING TEST KD M₂ (heart)"}, "[3]": {"tested_on": "conscious dogs equipped with cronic gastric fistula", "assay": "Conscious gastric fistula dog in vivo: 2-DG-elicited gastric secretion, heart rate and pupil diameter", "design": "species or system male Beagle dogs", "conditions": "cumulative i.v. dosing; for Heart rate ED₅₀ (beats/min): dose increasing heart rate by 50 beats per min; for ED₅₀ (agonist 2-DG*) Acid output: dose inhibiting 50% acid output; for ED₅₀ (agonist 2-DG*) Acid output / ED₅₀ (agonist 2-DG*) Pepsin output: secretion elicited by 2-deoxy-D-glucose 100 mg/kg i.v.; for ED₅₀ (agonist 2-DG*) Pepsin output: dose inhibiting 50% pepsin output; for Dose doubling pupil diameter: dose which at least doubled the initial pupil diameter", "protocol": "as §1\nStudies were performed in 5 male Beagle dogs (15-22 Kg) with well established gastric fistula. Gastric secretion was elicited by 2-deoxy-D-glucose (2-DG) (100 mg/kg, infused intravenously in 10 min), and collected by gravity drainage at 15 min intervals. […] Each sample was measured for volume (to the nearest 0.1 ml) and acidity (titration of 1 ml sample to pH 7 with NaOH 0.1 N by means of an automatic titrator ITT Radiometer PHM 62); the pepsin content in each 15 min sample was determined on 0.1 ml of gastric juice (diluted 1:20 wich HCl 0.1 N), using the hemoglobin digestion method described by Anson (J.Gen. Phys. 22 ([…]) 79) and expressed in mU Anson.\nThe compounds were injected intravenously in a cumulative fashion, each dose being administered at 15 min intervals, starting after the peak response was reached. At each dose level, heart rate was measured by a cardiotachometer and pupil diameter scored under constant light. Doses inhibiting 50% (ED₅₀ and their 95% confidence limits) acid and pepsin output and maximal inhibition (I max), were obtained by fractional linear transformation of the data: D/I = aD+b, were D = dose of antagonist; I = % inhibition of acid or pepsin output; I max = 1/a; ED₅₀ = b/a. (Hirschowitz B.I. Am. J. Physiol. 216: 487-489 1969) Doses increasing heart rate by 50 beats per min (ED₅₀ and their 95% confidence limits) were evaluated by linear regression analysis of the data relating dose to effect.\nDoses of compound which at least doubled the initial pupil diameter were also determined."}}, "data": [{"smiles": "CN1CCC(C(=O)C2c3ccccc3NC(=O)c3ccccc32)CC1", "note": "(stereo not drawn) [Compound 1, 6,11-dihydro-11-[(1-methyl-4-piperidinyl)-carbonyl]-5H-dibenz[b,e]-azepin-6-one]", "values": [{"measurement": "Kd", "setting": "[1]", "value": 0.0021, "unit": "µM"}, {"measurement": "Kd", "setting": "[2]", "value": 0.212, "unit": "µM"}, {"measurement": "Heart rate ED₅₀ (beats/min)", "setting": "[3]", "value": 204, "unit": "µg/kg i.v."}, {"measurement": "ED₅₀ (agonist 2-DG*) Acid output", "setting": "[3]", "value": 6.2, "unit": "µg/kg i.v."}, {"measurement": "ED₅₀ (agonist 2-DG*) Pepsin output", "setting": "[3]", "value": 8.0, "unit": "µg/kg i.v."}, {"measurement": "Dose doubling pupil diameter", "setting": "[3]", "value": 512, "unit": "µg/kg i.v."}]}, {"smiles": "CN1CCC(C(=O)C2c3ccccc3C(=O)Nc3cccc(F)c32)CC1", "note": "(stereo not drawn) [Compound 4, 1-fluoro-6,11-dihydro-11-[(1-methyl-4-piperidinyl)-carbonyl]-5H-dibenz[b,e]-azepin-6-one]", "values": [{"measurement": "Kd", "setting": "[1]", "value": 0.0022, "unit": "µM"}, {"measurement": "Kd", "setting": "[2]", "value": 0.21, "unit": "µM"}, {"measurement": "Heart rate ED₅₀ (beats/min)", "setting": "[3]", "value": 191, "unit": "µg/kg i.v."}, {"measurement": "ED₅₀ (agonist 2-DG*) Acid output", "setting": "[3]", "value": 6.1, "unit": "µg/kg i.v."}, {"measurement": "ED₅₀ (agonist 2-DG*) Pepsin output", "setting": "[3]", "value": 5.3, "unit": "µg/kg i.v."}, {"measurement": "Dose doubling pupil diameter", "setting": "[3]", "value": 512, "unit": "µg/kg i.v."}]}, {"smiles": "CN1CCC(C(=O)C2c3ccccc3C(=O)Nc3ccc(Cl)nc32)CC1", "note": "(stereo not drawn) [Compound 12, 2-chloro-6,11-dihydro-11-[(1-methyl-4-piperidinyl)-carbonyl]-5H-pyrido[2,3b]-benzazepin-6-one]", "values": [{"measurement": "Kd", "setting": "[1]", "value": 0.00315, "unit": "µM"}, {"measurement": "Kd", "setting": "[2]", "value": 0.279, "unit": "µM"}, {"measurement": "Heart rate ED₅₀ (beats/min)", "setting": "[3]", "value": 78, "unit": "µg/kg i.v."}, {"measurement": "ED₅₀ (agonist 2-DG*) Acid output", "setting": "[3]", "value": 7.2, "unit": "µg/kg i.v."}, {"measurement": "ED₅₀ (agonist 2-DG*) Pepsin output", "setting": "[3]", "value": 6.3, "unit": "µg/kg i.v."}, {"measurement": "Dose doubling pupil diameter", "setting": "[3]", "value": 320, "unit": "µg/kg i.v."}]}]}
